Measured values from paper PMC11222350, “Preclinical evaluation of [^18F]FP-CIT, the radiotracer targeting dopamine transporter for diagnosing Parkinson’s disease: pharmacokinetic and efficacy analysis” (EJNMMI Research, 2024).
Where two headings read alike, the source gives them in different places.

Tests used:
[1] = cited from earlier work
[2] = Metabolites of cold authentic FP-CIT in normal rats (LC-MS); format: in vivo, Sprague–Dawley rats; settings: FP-CIT 5 mg/kg i.v.; for presence in brain samples: 30 and 60 min
Method: Male Sprague–Dawley Rats (group III) were anesthetized with 2% isoflurane in oxygen, and cold authentic FP-CIT dissolved in 10% DMSO normal saline diluent was intravenously injected via the tail vein (5 mg/kg; 5 mg/mL). Rats were sacrificed at different time points (30 and 60 min after injection, n = 3 each), and the tissues of interest (i.e., blood, urine, brain, and liver) were harvested. One rat injected with 10% DMSO in normal saline was used as the negative control. Plasma obtained from the blood samples was centrifuged at 3000 rpm for 10 min at room temperature. Urine samples were collected from the urinary bladder using a 1 mL syringe at specific time points. After adding ice-cold acetonitrile at a volume of onefold (v/v) for each plasma and urine sample obtained, the samples were centrifuged at 12,000 rpm for 5 min at 4 °C and the supernatant was collected. The brain and liver tissues were separately homogenized in 1 mL of a 0.9% normal saline/acetonitrile (95:5 v/v) solution using a homogenizer. The obtained homogenate was deproteinized using 500 μL of acetonitrile and centrifuged (4 °C, 12,000 rpm, 10 min), followed by collecting the supernatant. The supernatants obtained by centrifuging the blood, brain, liver, and urine samples were filtered with 2 mL of acetonitrile using a 0.45 μm UHP syringe filter to remove residues. Compounds identified as FP-CIT metabolites in a previous study were modified to a cold-fluorine-authentic form and used as positive controls. The filtered samples were analyzed qualitatively and quantitatively based on the positive controls.
The ISQEM LC–MS system (Thermo Fisher, Waltham, MA, USA) equipped with OptimaPak C18 (5 μm, 4.6 × 250 mm) column was used. The HPLCf elution condition (A: 0.1% (v/v) trifluoroacetic acid, B: acetonitrile) was as follows: a gradient elution; 90% (A), 10% (B) (0 min) → 40% (A), 60% (B) (35 min); and a flow rate of 1 mL/min. The injection volume of each sample was 20 μL. Electrospray ionization mass was scanned in both the positive and negative modes. Mass range (amu) was 100–2000; dwell times, 0.1 s; source voltage, 3000 V (positive) and − 2000 V (negative); and vaporizer temperature, 550 °C; nitrogen was used as nebulizing gas. For analysis, the masses of [M + H]^+ of cold authentic FP-CIT administrated and metabolites were extracted from the obtained total ion chromatogram, and Gaussian distribution curve fitting was conducted.

dopamine transporter [3] = test system: dopamine transporter; parameters: method as in PMID 30028339, PMID 23758882, PMID 15908232; settings: cited from earlier work
serotonin transporter = settings: cited from earlier work
dopamine transporter [4] = settings: PET scanning; cited from earlier work
[5] = parameters: method as in earlier work; settings: cited from earlier work

SMILES: O=C(O)C1C2CCC(CC1c1ccc(I)cc1)N2 (stereo not drawn) [nor-β-CIT-acid]
- blood–brain barrier penetration ([1]; low-lipophilic metabolite of [^123I]FP-CIT): difficulty penetrating the BBB
- presence in brain samples [2]: Neither FP-CIT-acid nor nor-β-CIT-acid was observed in the brain samples
- metabolite distribution ([2]; 60 min post-injection): appeared in the blood, urine, and liver samples

SMILES: CN1[C@H]2CC[C@@H]1[C@@H](CN(CC[S-])CC[N-]CC[S-])[C@@H](c1ccc(Cl)cc1)C2.[O]=[99Tc+4] [[^99mTc]TRODAT-1]
- correlation (R) with TH IHC (dopamine transporter [3]): 0.899

SMILES: COC(=O)C1C2CCC(CC1c1ccc(I)cc1)N2 (stereo not drawn) [nor-β-CIT]
- metabolite distribution in blood, brain, liver, urine EIC ([2]; 30 min after administration): mainly observed in all the EIC of metabolic pathways
- affinity for serotonin transporter relative to FP-CIT (serotonin transporter): higher affinity for serotonin transporter than FP-CIT

SMILES: COC(=O)[C@H]1C(c2ccc([123I])cc2)C[C@@H]2CC[C@H]1N2C (stereo partly drawn) [[^123I]β-CIT]
- correlation (R) with TH IHC (dopamine transporter [3]): 0.911
- correlation (R) with dopamine transporter IHC (dopamine transporter [3]): 0.936

SMILES: [11CH3]OC(=O)C1C(c2ccc(I)cc2)CC2CCC1N2CCCF (centres unmarked) [[^11C]FP-CIT]
- time of transient equilibrium in time activity curves (specific binding to the striatum) (dopamine transporter [4]): 70 to 90 min

SMILES: COC(=O)C1C(c2ccc(I)cc2)CC2CCC1N2CCCF (stereo not drawn) [FP-CIT, N-(3-fluoropropyl)-2β-carboxymethoxy-3β-(4-iodophenyl) nortropane]
- metabolite distribution in blood, brain, liver, urine EIC ([2]; 30 min after administration): mainly observed in all the EIC of metabolic pathways

SMILES: COC(=O)[C@H]1[C@@H](c2ccc([123I])cc2)C[C@@H]2CC[C@H]1N2CCCF [[^123I]FP-CIT]
- injected dose excreted ([5]; till 6 h post-injection, male Wistar rats): approximately 10%
- injected dose excreted ([5]; until 72 h, animals): more than 80%
- correlation (R) with dopamine transporter IHC (dopamine transporter [3]): 0.88

SMILES: O=C(O)C1C(c2ccc(I)cc2)CC2CCC1N2CCCF (centres unmarked) [FP-CIT-acid]
- amount relative to other forms [1]: < 0.3%
- blood–brain barrier penetration [1]: cannot penetrate the blood–brain barrier
- presence in brain samples [2]: Neither FP-CIT-acid nor nor-β-CIT-acid was observed in the brain samples
- metabolite distribution, urine ([2]; 30 min after administration): most distinctly observed in the urine samples
